Assay results: patent US20030207877A1, “Pyridoquinoxaline antivirals” (priority 2001, published 2003)
Blank lines part the entries; values can stand above or below the molecule they belong to.

Columns and labels:
HCMV polymerase = biological target: T1, HCMV polymerase (Human cytomegalovirus, UniProt P08546); assay: HCMV polymerase assay (scintillation proximity assay), original and modified version; type: biochemical; conditions: SPA; several values per example = repeat determinations, assay version not given; read-out: CMV Polymerase IC50
T1 construct: made in house; host or cells: SF-9 insect cells infected with recombinant baculovirus
Experimental: The HCMV polymerase assay is performed using a scintillation proximity assay (SPA) as described in several references, such as N.D. Cook, et al., Pharmaceutical Manufacturing International, pages 49-53 (1992); K. Takeuchi, Laboratory Practice, September issue (1992); U.S. Pat. No. 4,568,649 (1986); which are incorporated by reference herein. Reactions are performed in 96-well plates. The assay is conducted in 100 μl volume with 5.4 mM HEPES (pH 7.5), 11.7 MM KCl, 4.5 mM MgCl2, 0.36 mg/ml BSA, and 90 nM ^3H-dTTP. Assays are run with and without CHAPS, (3-[(3-Cholamidopropyl)-dimethylammoniol-1-propane-sulfonate) at a final concentration of 2 mM. HCMV polymerase is diluted in enzyme dilution buffer containing 50% glycerol, 250 mM NaCl, 10 mM HEPES (pH 7.5), 100 μg/ml BSA, and 0.01% sodium azide. The HCMV polymerase, which is expressed in recombinant baculovirus-infected SF-9 cells and purified according to literature procedures, is added at 10% (or 10 μl) of the final reaction volume, i.e., 100 μl. Compounds are diluted in 50% DMSO and 10 μl are added to each well. Control wells contain an equivalent concentration of DMSO. Unless noted otherwise, reactions are initiated via the addition of 6 nM biotinylated poly(dA)-oligo(dT) template/primer to reaction mixtures containing the enzyme, substrate, and compounds of interest. Plates are incubated in a 25° C. or 37° C. H2O bath and terminated via the addition of 40 μl/reaction of 0.5 M EDTA (pH 8) per well. Reactions are terminated within the time-frame during which substrate incorporation is linear and varied depending upon the enzyme and conditions used, i.e., 30 min. for HCMV polymerase. Ten (10) μl of streptavidin-SPA beads (20 mg/ml in PBS/10% glycerol) are added following termination of the reaction. Plates are incubated 10 min. at 37° C., then equilibrated to room temperature, and counted on a Packard Topcount. Linear regressions are performed and IC50's are calculated using computer software.
A modified version of the above HCMV polymerase assay is performed as described above, but with the following changes: Compounds are diluted in 100% DMSO until final dilution into assay buffer. In the previous assay, compounds are diluted in 50% DMSO. 4.5 mM dithiotherotol (DTT) is added to the polymerase buffer.

T1 sequence (P08546 whole entry): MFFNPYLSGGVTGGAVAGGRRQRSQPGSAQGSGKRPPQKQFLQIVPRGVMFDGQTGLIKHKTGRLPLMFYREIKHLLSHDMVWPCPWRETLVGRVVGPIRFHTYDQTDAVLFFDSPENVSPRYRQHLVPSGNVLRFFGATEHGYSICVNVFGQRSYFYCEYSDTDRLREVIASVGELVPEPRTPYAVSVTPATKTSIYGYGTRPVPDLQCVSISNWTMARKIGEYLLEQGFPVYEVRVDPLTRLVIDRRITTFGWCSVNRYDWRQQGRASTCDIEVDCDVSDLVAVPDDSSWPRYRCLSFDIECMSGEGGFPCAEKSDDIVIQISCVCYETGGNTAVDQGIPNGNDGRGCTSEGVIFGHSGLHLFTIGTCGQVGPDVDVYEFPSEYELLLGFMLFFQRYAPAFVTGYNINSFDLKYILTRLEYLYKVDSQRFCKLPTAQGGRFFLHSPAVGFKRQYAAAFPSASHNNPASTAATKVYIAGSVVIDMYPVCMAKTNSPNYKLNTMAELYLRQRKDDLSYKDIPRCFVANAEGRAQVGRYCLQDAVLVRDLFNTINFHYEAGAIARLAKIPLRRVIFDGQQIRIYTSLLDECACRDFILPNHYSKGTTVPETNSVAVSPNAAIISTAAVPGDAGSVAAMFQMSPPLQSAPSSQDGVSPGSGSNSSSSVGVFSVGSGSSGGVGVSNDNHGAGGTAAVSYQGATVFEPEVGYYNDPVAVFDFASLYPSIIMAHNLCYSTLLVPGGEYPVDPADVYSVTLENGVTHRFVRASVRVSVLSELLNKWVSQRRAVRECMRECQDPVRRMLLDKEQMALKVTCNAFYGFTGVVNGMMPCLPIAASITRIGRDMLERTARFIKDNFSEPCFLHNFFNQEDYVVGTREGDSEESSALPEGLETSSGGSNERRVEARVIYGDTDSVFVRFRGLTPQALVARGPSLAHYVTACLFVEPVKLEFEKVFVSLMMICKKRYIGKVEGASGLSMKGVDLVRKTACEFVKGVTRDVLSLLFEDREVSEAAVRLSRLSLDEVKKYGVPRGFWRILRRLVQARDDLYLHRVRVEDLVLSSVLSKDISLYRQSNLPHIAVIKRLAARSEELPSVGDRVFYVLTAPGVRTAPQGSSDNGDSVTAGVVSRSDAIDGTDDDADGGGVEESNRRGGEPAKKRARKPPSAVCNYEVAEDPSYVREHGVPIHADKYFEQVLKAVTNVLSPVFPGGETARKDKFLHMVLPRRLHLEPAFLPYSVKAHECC

SMILES: CN(Cc1cc2c3c(c1)c(=O)c(C(=O)NCc1ccc(Cl)cc1)cn3CC(=O)N2C)CC(O)Cc1ccccc1 (racemic) [Example 17, rac N-(4-chlorobenzyl)-9-{[(2-hydroxy-3-phenylpropyl)(methyl)amino]methyl}-1-methyl-2,7-dioxo-2,3-dihydro-1H,7H-pyrido [1,2,3-de]quinoxaline-6-carboxamide]
IC50 (HCMV polymerase): 870 nM
melting point: 121 to 127 °C

SMILES: CN(Cc1cc2c3c(c1)c(=O)c(C(=O)NCc1ccc(Cl)cc1)cn3CC(=O)N2C)CC(O)c1ncccn1 (racemic) [Example 19, rac N-(4-chlorobenzyl)-9-{([2-hydroxy-2-pyrimidin-2-ylethyl](methyl)amino)methyl}-1-methyl-2,7-dioxo-2,3-dihydro-1H,7H-pyrido [1,2,3-de]quinoxaline-6-carboxamide]
IC50 (HCMV polymerase): 490 nM
melting point: 168 to 170 °C

SMILES: CN(Cc1cc2c3c(c1)c(=O)c(C(=O)NCc1ccc(F)cc1)cn3CC(=O)N2C)C[C@@H](O)c1nccs1 [Example 27, N-(4-fluorobenzyl)-9-{[[(2R)-2-hydroxy-2-(1,3-thiazol-2-yl)ethyl](methyl)amino]methyl}-1-methyl-2,7-dioxo-2,3-dihydro-1H,7H-pyrido[1,2,3-de]quinoxaline-6-carboxamide]
IC50 (HCMV polymerase): 2080 nM
melting point: 156 to 158 °C

SMILES: CN(Cc1cc2c3c(c1)c(=O)c(C(=O)NCc1ccc(Cl)cc1)cn3CC(=O)N2C)C[C@@H](O)c1ccsc1 [Example 14, N-(4-chlorobenzyl)-9-{[[(2S)-2-hydroxy-2-thien-3-ylethyl](methyl)amino]methyl}-1-methyl-2,7-dioxo-2,3-dihydro-1H,7H-pyrido[1,2,3-de]quinoxaline-6-carboxamide]
IC50 (HCMV polymerase): 190 nM
melting point: 137 to 139 °C

SMILES: CN(Cc1cc2c3c(c1)c(=O)c(C(=O)NCc1ccc(Cl)cc1)cn3CC(=O)N2C)CC(O)c1ccoc1 (racemic) [Example 4, rac N-(4-chlorobenzyl)-9-{([2-(3-furyl)-2-hydroxyethyl](methyl)amino)methyl}-1-methyl-2,7-dioxo-2,3-dihydro-1H,7H-pyrido[1,2,3-de]quinoxaline-6-carboxamide]
IC50 (HCMV polymerase): 570 nM
melting point: 145 to 148 °C

SMILES: CN(Cc1cc2c3c(c1)c(=O)c(C(=O)NCc1ccc(Cl)cc1)cn3CC(=O)N2CCO)C[C@@H](O)c1ccco1 [Example 31, N-(4-chlorobenzyl)-9-{([(2R)-2-(2-furyl)-2-hydroxyethyl](methyl)amino)methyl}-1-(2-hydroxyethyl)-2,7-dioxo-2,3-dihydro-1H,7H-pyrido[1,2,3-de]quinoxaline-6-carboxamide]
IC50 (HCMV polymerase): 2890 nM
melting point: 166 to 167 °C

SMILES: CN(Cc1cc2c3c(c1)c(=O)c(C(=O)NCc1ccc(F)cc1)cn3CC(=O)N2C)C[C@@H](O)c1ccccc1 [Example 29, N-(4-fluorobenzyl)-9-{[[(2S)-2-hydroxy-2-phenylethyl](methyl)amino]methyl}-1-methyl-2,7-dioxo-2,3-dihydro-1H,7H-pyrido[1,2,3-de]quinoxaline-6-carboxamide]
IC50 (HCMV polymerase): 810 nM
melting point: 150 to 152 °C

SMILES: CN(Cc1cc2c3c(c1)c(=O)c(C(=O)NCc1ccc(Cl)cc1)cn3CC(=O)N2C)C[C@@H](O)c1cc2ccccc2o1 [Example 34, 9-{[[(2R)-2-(1-benzofuran-2-yl)-2-hydroxyethyl](methyl)amino]methyl)-N-(4-chlorobenzyl)-1-methyl-2,7-dioxo-2,3-dihydro-1H,7H-pyrido[1,2,3-de]quinoxaline-6-carboxamide]
IC50 (HCMV polymerase): 4 nM

SMILES: CN(Cc1cc2c3c(c1)c(=O)c(C(=O)NCc1ccc(F)cc1)cn3CC(=O)N2C)C[C@@H](O)c1cnccn1 [Example 30, N-(4-fluorobenzyl)-9-{[[(2R)-2-hydroxy-2-pyrazin-2-ylethyl](methyl)amino]methyl}-1-methyl-2,7-dioxo-2,3-dihydro-1H,7H-pyrido[1,2,3-de]quinoxaline-6-carboxamide]
IC50 (HCMV polymerase): 1090 nM
melting point: 108 to 110 °C

SMILES: Cc1cc(C(O)CN(C)Cc2cc3c4c(c2)c(=O)c(C(=O)NCc2ccc(Cl)cc2)cn4CC(=O)N3C)c(C)o1 (racemic) [Example 7, rac N-(4-chlorobenzyl)-9-{([2-(2,5-dimethyl-3-furyl)-2-hydroxyethyl](methyl)amino)methyl}-1-methyl-2,7-dioxo-2,3-dihydro-1H,7H-pyrido[1,2,3-de]quinoxaline-6-carboxamide]
IC50 (HCMV polymerase): 250 nM
melting point: 157 to 160 °C

SMILES: CN(Cc1cc2c3c(c1)c(=O)c(C(=O)NCc1ccc(Cl)cc1)cn3CC(=O)N2C)CC(O)c1ccc(C#N)s1 (racemic) [Example 20, rac N-(4-chlorobenzyl)-9-{([2-(5-cyanothein-2-yl)-2-hydroxyethyl](methyl)amino)methyl}-1-methyl-2,7-dioxo-2,3-dihydro-1H,7H-pyrido[1,2,3-de]quinoxaline-6-carboxamide]
IC50 (HCMV polymerase): 410 nM
melting point: 122 to 126 °C

Now from value to molecule:

IC50 (HCMV polymerase): 240 nM
melting point: 153 to 155 °C
SMILES: CN(Cc1cc2c3c(c1)c(=O)c(C(=O)NCc1ccc(Cl)cc1)cn3CC(=O)N2C)CC(O)c1ccco1 (racemic) [Example 5, rac N-(4-chlorobenzyl)-9-{([2-(2-furyl)-2-hydroxyethyl](methyl)amino)methyl}-1-methyl-2,7-dioxo-2,3-dihydro-1H,7H-pyrido[1,2,3-de]quinoxaline-6-carboxamide]

IC50 (HCMV polymerase): 180 nM
SMILES: CN(Cc1cc2c3c(c1)c(=O)c(C(=O)NCc1ccc(Cl)cc1)cn3CC(=O)N2C)C[C@H](O)c1cc2ccccc2o1 [Example 35, 9-{[[(2S)-2-(1-benzofuran-2-yl)-2-hydroxyethyl](methyl)amino]methyl}-N-(4-chlorobenzyl)-1-methyl-2,7-dioxo-2,3-dihydro-1H,7H-pyrido[1,2,3-de]quinoxaline-6-carboxamide]

IC50 (HCMV polymerase): 300 nM
SMILES: CN(Cc1cc2c3c(c1)c(=O)c(C(=O)NCc1ccc(Cl)cc1)cn3CC(=O)N2C)C[C@@H](O)c1ccccn1 [Example 9, N-(4-chlorobenzyl)-9-{[[(2R)-2-hydroxy-2-pyridin-2-ylethyl](methyl)amino]methyl}-1-methyl-2,7-dioxo-2,3-dihydro-1H,7H-pyrido[1,2,3-de]quinoxaline-6-carboxamide]

IC50 (HCMV polymerase): 220 nM
SMILES: CN(Cc1cc2c3c(c1)c(=O)c(C(=O)NCc1ccc(Cl)cc1)cn3CC(=O)N2C)CC(O)c1ccccc1 (stereo not shown) [Example 1, N-(4-chlorobenzyl)-9-{[(2-hydroxy-2-phenylethyl) (methyl)amino]methyl}-1-methyl-2,7-dioxo-2,3-dihydro-1H,7H-pyrido[1,2,3-de]quinoxaline-6-carboxamide]

IC50 (HCMV polymerase): 880 nM
melting point: 195 to 197 °C
SMILES: CN(Cc1cc2c3c(c1)c(=O)c(C(=O)NCc1ccc(Cl)cc1)cn3CC(=O)N2CCO)CC(O)c1cc2ccccc2o1 (racemic) [Example 26, rac 9-{([2-(1-benzofuran-2-yl)-2-hydroxyethyl](methyl)amino)methyl}-N-(4-chlorobenzyl)-1-(2-hydroxyethyl)-2,7-dioxo-2,3-dihydro-1H,7H-pyrido[1,2,3-de]quinoxaline-6-carboxamide]

IC50 (HCMV polymerase): 420 nM
melting point: 150 to 152 °C
SMILES: CN(Cc1cc2c3c(c1)c(=O)c(C(=O)NCc1ccc(F)cc1)cn3CC(=O)N2C)C[C@@H](O)c1ccco1 [Example 23, N-(4-fluorobenzyl)-9-{[[(2R)-2-(2-furyl)-2-hydroxyethyl](methyl)amino]methyl}-1-methyl-2,7-dioxo-2,3-dihydro-1H,7H-pyrido[1,2,3-de]quinoxaline-6-carboxamide]

IC50 (HCMV polymerase): 690 nM
melting point: 150 to 152 °C
SMILES: CN(Cc1cc2c3c(c1)c(=O)c(C(=O)NCc1ccc(F)cc1)cn3CC(=O)N2C)C[C@@H](O)c1ccsc1 [Example 28, N-(4-fluorobenzyl)-9-{[[(2S)-2-hydroxy-2-thien-3-ylethyl](methyl)amino]methyl}-1-methyl-2,7-dioxo-2,3-dihydro-1H,7H-pyrido[1,2,3-de]quinoxaline-6-carboxamide]

IC50 (HCMV polymerase): 1100 nM
melting point: 156 to 158 °C
SMILES: Cc1cccc(C(O)CN(C)Cc2cc3c4c(c2)c(=O)c(C(=O)NCc2ccc(Cl)cc2)cn4CC(=O)N3C)n1 (racemic) [Example 8, rac N-(4-chlorobenzyl)-9-{([2-hydroxy-2-(6-methylpyridin-2-yl)ethyl](methyl)amino)methyl}-1-methyl-2,7-dioxo-2,3-dihydro-1H,7H-pyrido [1,2,3-de]quinoxaline-6-carboxamide]
